Experimental findings from patent publication US11020399B2, “Intermediates useful in the synthesis of compounds as modulators of protein kinases” (Rhizen Pharmaceuticals SA, priority 2011, dated 2021) are described below.

Where a name gives a salt, the structure may show the parent alone.

One data set addresses PI3kγ (Homo sapiens, UniProt P48736). In words: Fluorescent (HTRF) determination of PI3 kinase enzyme activity, PI3Kγ. Type of data set: biochemical. Particulars: for % inhibition (PI3kγ) 100 nM / inhibition at 0.1 µM: 100 nM (Examples 60-137); for % inhibition (PI3kγ) 100 nM: 0.1 µM; for inhibition at 0.3 µM: 300 nM (Examples 1-59). A digest of the protocol:
(§1)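 HTRF detection of PIP3 from PIP2 (1.38 μM in reaction mix) with 10 mM MgCl2, 5 mM DTT; compound preincubated with enzyme 10 min, then ATP (400 μM addition) 30 min at room temperature. Percent inhibition versus blank and enzyme controls at 1 μM (α, β) and 0.3 or 0.1 μM (γ, δ); IC50 also fitted.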

A further data set has as its target PI3kδ (Homo sapiens, UniProt O00329). In words: Fluorescent (HTRF) determination of PI3 kinase enzyme activity, PI3Kδ. The format is biochemical. The conditions noted are these: for % inhibition (PI3kδ) 100 nM / inhibition at 0.1 µM: 100 nM (Examples 60-137); for % inhibition (PI3kδ) 100 nM: 0.1 µM; for inhibition at 0.3 µM: 300 nM (Examples 1-59). A digest of the protocol:
as §1
Background: In TR-FRET formats the signal depends on donor and acceptor labels being close together.

In a further data set the target is PI3kα (Homo sapiens, UniProt P42336). In words: Fluorescent (HTRF) determination of PI3 kinase enzyme activity, PI3Kα. Type of data set: biochemical. The conditions noted are these: 1 uM. A digest of the protocol:
as §1

The next data set has as its target PI3kβ (Homo sapiens, UniProt P42338). In words: Fluorescent (HTRF) determination of PI3 kinase enzyme activity, PI3Kβ. The format is biochemical. The conditions noted are these: 1 uM. A digest of the protocol:
as §1

Chain of PI3kδ (O00329 whole entry): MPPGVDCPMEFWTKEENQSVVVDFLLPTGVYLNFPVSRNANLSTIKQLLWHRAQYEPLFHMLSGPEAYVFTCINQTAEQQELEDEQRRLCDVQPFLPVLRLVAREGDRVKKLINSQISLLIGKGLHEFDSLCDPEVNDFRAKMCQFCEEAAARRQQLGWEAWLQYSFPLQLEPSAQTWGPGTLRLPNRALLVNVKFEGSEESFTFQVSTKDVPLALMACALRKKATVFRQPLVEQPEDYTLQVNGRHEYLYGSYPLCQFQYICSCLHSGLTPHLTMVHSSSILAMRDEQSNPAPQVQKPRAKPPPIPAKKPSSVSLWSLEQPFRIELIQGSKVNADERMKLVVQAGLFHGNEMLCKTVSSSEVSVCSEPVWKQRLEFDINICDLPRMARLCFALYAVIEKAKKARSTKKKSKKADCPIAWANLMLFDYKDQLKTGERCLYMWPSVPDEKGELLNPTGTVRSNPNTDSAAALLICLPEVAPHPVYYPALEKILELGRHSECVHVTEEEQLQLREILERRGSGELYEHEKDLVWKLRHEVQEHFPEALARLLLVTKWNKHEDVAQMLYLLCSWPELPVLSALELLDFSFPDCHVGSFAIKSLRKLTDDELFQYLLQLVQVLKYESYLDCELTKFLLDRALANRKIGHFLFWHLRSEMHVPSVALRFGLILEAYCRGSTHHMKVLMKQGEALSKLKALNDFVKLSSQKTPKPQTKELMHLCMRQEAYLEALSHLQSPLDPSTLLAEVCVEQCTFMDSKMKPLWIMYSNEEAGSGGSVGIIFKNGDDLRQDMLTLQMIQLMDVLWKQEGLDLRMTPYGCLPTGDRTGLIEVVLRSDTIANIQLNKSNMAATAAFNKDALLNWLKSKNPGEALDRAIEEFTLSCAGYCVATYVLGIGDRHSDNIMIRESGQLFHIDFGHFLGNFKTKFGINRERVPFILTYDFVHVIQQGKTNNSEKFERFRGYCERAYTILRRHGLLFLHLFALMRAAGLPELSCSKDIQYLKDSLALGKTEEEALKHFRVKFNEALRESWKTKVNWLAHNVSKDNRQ
Chain of PI3kδ (P27986 whole entry partner): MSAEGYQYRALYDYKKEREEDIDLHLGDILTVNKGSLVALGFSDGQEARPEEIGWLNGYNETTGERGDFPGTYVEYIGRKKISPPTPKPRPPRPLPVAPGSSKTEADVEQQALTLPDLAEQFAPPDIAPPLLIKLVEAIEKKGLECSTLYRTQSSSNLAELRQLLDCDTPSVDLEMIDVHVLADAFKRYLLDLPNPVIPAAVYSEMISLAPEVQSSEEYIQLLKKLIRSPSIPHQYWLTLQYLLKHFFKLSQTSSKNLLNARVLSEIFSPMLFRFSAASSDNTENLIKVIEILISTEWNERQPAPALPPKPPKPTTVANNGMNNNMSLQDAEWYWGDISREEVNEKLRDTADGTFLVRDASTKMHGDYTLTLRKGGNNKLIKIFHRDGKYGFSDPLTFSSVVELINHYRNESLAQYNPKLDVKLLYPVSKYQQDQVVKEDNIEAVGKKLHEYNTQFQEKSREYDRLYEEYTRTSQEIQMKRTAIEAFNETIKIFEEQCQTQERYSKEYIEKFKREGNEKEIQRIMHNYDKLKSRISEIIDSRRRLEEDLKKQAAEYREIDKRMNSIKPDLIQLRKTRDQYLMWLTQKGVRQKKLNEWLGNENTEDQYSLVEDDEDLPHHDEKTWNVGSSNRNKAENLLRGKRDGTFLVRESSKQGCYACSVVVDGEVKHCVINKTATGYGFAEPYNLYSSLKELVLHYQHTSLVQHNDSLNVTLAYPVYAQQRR
Chain of PI3kγ (P48736 whole entry): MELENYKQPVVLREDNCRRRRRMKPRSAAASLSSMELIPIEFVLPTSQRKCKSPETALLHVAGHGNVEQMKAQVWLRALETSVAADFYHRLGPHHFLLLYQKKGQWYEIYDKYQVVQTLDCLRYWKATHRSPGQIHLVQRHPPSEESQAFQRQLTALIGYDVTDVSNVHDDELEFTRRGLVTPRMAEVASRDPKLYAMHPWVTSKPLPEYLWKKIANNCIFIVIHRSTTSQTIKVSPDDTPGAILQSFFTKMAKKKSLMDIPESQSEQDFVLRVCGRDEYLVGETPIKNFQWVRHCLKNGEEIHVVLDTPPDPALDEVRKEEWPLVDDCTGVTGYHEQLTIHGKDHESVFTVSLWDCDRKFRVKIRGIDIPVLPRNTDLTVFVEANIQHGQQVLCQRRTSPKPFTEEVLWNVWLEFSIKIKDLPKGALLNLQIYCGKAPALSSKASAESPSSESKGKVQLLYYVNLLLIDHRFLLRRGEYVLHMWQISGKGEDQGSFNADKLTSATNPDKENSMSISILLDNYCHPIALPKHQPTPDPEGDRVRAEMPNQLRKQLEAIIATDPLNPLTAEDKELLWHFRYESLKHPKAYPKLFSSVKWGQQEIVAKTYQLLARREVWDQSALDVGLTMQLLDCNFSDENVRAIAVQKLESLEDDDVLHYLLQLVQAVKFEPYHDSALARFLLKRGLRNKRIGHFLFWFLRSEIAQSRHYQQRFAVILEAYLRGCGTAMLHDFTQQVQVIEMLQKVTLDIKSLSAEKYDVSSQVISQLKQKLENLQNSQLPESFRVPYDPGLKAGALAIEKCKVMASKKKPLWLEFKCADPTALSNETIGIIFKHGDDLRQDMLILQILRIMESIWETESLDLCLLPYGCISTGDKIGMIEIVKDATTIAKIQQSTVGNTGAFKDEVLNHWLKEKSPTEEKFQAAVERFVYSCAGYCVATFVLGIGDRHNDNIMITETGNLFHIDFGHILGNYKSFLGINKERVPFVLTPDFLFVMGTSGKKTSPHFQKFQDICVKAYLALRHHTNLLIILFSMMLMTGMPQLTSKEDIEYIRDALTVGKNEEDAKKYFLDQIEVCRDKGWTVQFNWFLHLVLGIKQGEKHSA
Chain of PI3kα (P42336 whole entry): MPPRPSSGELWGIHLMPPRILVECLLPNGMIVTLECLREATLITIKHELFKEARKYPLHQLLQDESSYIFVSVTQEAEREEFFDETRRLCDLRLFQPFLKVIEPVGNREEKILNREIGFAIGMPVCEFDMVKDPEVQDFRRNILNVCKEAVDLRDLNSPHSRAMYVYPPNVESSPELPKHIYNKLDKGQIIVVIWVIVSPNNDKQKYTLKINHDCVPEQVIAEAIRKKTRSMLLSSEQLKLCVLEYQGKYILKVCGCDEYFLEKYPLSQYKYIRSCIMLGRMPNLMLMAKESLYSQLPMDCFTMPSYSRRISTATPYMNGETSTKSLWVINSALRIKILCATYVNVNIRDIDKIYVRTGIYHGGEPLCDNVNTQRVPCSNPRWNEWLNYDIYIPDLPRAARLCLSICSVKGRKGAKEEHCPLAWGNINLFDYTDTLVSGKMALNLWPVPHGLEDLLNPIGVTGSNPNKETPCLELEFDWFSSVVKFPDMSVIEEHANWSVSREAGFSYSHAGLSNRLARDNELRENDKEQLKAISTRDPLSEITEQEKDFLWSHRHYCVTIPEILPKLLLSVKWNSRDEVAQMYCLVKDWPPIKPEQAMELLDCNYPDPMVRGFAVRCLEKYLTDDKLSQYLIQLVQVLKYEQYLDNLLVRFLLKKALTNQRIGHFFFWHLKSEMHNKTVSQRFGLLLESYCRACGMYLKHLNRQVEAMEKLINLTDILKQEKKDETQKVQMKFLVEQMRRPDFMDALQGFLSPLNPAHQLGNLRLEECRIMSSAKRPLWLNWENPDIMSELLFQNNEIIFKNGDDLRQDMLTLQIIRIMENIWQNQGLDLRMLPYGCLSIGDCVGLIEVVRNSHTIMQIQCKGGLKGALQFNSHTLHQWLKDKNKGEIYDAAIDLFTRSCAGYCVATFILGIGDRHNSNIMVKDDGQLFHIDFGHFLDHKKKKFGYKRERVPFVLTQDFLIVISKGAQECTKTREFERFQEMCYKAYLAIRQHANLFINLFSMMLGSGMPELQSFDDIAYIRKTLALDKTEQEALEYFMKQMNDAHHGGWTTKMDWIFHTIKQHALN
Chain of PI3kα (P27986 whole entry partner): as the sequence (P27986 whole entry partner) above
Chain of PI3kβ (P42338 whole entry): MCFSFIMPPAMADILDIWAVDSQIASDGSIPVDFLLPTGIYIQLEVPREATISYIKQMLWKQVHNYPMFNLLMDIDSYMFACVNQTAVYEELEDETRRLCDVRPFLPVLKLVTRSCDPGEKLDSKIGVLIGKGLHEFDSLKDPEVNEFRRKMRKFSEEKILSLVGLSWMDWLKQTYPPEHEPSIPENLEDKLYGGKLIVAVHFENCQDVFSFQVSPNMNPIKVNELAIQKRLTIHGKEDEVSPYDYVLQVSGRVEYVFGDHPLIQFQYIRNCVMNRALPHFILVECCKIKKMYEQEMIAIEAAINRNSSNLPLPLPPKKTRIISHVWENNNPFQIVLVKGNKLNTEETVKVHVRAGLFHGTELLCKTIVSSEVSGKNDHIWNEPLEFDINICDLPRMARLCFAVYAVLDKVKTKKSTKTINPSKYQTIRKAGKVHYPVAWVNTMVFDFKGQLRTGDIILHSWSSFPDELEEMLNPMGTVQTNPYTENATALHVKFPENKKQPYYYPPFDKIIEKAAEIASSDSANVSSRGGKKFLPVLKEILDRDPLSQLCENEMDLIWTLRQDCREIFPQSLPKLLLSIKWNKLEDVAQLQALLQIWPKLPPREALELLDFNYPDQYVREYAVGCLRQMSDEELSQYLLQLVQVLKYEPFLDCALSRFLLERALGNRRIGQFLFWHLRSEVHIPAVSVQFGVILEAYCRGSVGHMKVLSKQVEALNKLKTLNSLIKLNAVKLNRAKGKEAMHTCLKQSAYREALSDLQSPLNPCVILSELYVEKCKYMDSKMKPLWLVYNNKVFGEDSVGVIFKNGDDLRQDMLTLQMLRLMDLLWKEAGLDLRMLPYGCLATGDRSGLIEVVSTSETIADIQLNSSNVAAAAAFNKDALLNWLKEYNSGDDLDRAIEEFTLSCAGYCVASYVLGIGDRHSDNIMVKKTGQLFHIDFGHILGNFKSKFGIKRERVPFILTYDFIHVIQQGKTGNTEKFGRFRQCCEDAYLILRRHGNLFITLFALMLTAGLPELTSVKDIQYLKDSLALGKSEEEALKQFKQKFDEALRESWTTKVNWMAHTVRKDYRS
Chain of PI3kβ (P27986 whole entry partner): as the sequence (P27986 whole entry partner) above

Consider `CC(c1oc2cccc(F)c2c(=O)c1-c1cccc(F)c1)n1cnc2c(N)nc(F)nc21` (centres unmarked) (as salt: potassium) [Example 106, 2-(1-(6-amino-2-fluoro-9H-purin-9-yl)ethyl)-5-fluoro-3-(3-fluorophenyl)-4H-chromen-4-one], for which the melting point fell in the range of 255 to 258 °C.

Compound `CNc1ncnc2c1ncn2C(C)c1oc2cccc(F)c2c(=O)c1-c1cccc(F)c1` (centres unmarked) (as salt: potassium) [Example 111, 5-fluoro-3-(3-fluorophenyl)-2-(1-(6-(methylamino)-9H-purin-9-yl)ethyl)-4H-chromen-4-one] gave a melting point of 207 to 209 °C.

`CC(c1oc2cccc(F)c2c(=O)c1-c1cccc(F)c1)n1cnc2c(N3CCOCC3)ncnc21` (centres unmarked) (as salt: potassium) [Example 119, 5-fluoro-3-(3-fluorophenyl)-2-(1-(6-morpholino-9H-purin-9-yl)ethyl)-4H-chromen-4-one] returned a melting point of 239 to 241 °C.

`Cc1cc(-c2nn(C(C)c3oc4cccc(F)c4c(=O)c3-c3cccc(F)c3)c3ncnc(N)c23)ccc1OC(C)C` (centres unmarked) (as salt: sodium) [Example 50, 2-(1-(4-amino-3-(4-isopropoxy-3-methylphenyl)-1H-pyrazolo[3,4-d]pyrimidin-1-yl)ethyl)-5-fluoro-3-(3-fluorophenyl)-4H-chromen-4-one] displayed a melting point of 185 to 188 °C.

Consider `CC(C)Oc1ccc(-c2nn(C(C)c3oc4cccc(F)c4c(=O)c3-c3cccc(F)c3)c3ncnc(N4CCOCC4)c23)cc1F` (racemic) [Example 116, (S)/(R)-5-fluoro-2-(1-(3-(3-fluoro-4-isopropoxyphenyl)-4-morpholino-1H-pyrazolo[3,4-d]pyrimidin-1-yl)ethyl)-3-(3-fluorophenyl)-4H-chromen-4-one], for which the melting point is 136 to 138 °C. On PI3kγ, the “% inhibition (PI3kγ) 100 nM” value is “D (D=0 to 25%)”. At PI3kδ, the “% inhibition (PI3kδ) 100 nM” value is reported as “D (D=0 to 25%)”.

As for `C[C@H](c1oc2cccc(F)c2c(=O)c1-c1cccc(F)c1)n1ncc2c(N)ncnc21` [Example 16b, (−)-2-(1-(4-amino-1H-pyrazolo[3,4-d]pyrimidin-1-yl)ethyl)-5-fluoro-3-(3-fluorophenyl)-4H-chromen-4-one], the melting point fell in the range of 198 to 201 °C.

In the case of `CC(c1oc2cccc(F)c2c(=O)c1-c1cccc(F)c1)n1nc(N(C)C)c2c(N)ncnc21` (centres unmarked) [Example 38, 2-(1-(4-amino-3-(dimethylamino)-1H-pyrazolo[3,4-d]pyrimidin-1-yl)ethyl)-5-fluoro-3-(3-fluorophenyl)-4H-chromen-4-one], the inhibition at 1 µM at PI3kα and against PI3kβ was 25 to 50% throughout. Also, the inhibition at 0.3 µM was 0 to 25% against PI3kγ and 50 to 75% at PI3kδ.

`CC(c1oc2cccc(F)c2c(=O)c1-c1cccc(F)c1)n1nc(N2CCCCC2)c2c(N)ncnc21` (centres unmarked) [Example 39, 2-(1-(4-amino-3-(piperidin-1-yl)-1H-pyrazolo[3,4-d]pyrimidin-1-yl)ethyl)-5-fluoro-3-(3-fluorophenyl)-4H-chromen-4-one]: the inhibition at 1 µM lay within 25 to 50% at PI3kα and 50 to 75% at PI3kβ. The inhibition at 0.3 µM against PI3kγ lay within 0 to 25%; on PI3kδ, 25 to 50%.

With `CC(C)Oc1ccc(-c2nn(C(C)c3oc4cccc(F)c4c(=O)c3-c3cccc(F)c3)c3ncnc(N)c23)cn1` (centres unmarked) [Example 40, 2-(1-(4-amino-3-(6-isopropoxypyridin-3-yl)-1H-pyrazolo[3,4-d]pyrimidin-1-yl)ethyl)-5-fluoro-3-(3-fluorophenyl)-4H-chromen-4-one], the inhibition at 1 µM at PI3kα was in the range of 25 to 50%; at PI3kβ, 50 to 75%. In addition, the inhibition at 0.3 µM is 0 to 25% at PI3kγ and 50 to 75% on PI3kδ.

Take `CSc1nn(C(C)c2oc3cccc(F)c3c(=O)c2-c2cccc(F)c2)c2ncnc(N)c12` (centres unmarked) [Example 41, 2-(1-(4-amino-3-(methylthio)-1H-pyrazolo[3,4-d]pyrimidin-1-yl)ethyl)-5-fluoro-3-(3-fluorophenyl)-4H-chromen-4-one]: the inhibition at 1 µM on PI3kα and against PI3kβ was 25 to 50% in each case. The inhibition at 0.3 µM at PI3kγ and against PI3kδ was 50 to 75% throughout.

Take `CC(c1oc2cccc(F)c2c(=O)c1-c1cccc(F)c1)n1nc(-c2ccc(OC3CN(C(c4ccccc4)c4ccccc4)C3)c(F)c2)c2c(N)ncnc21` (centres unmarked) [Example 44, 2-(1-(4-amino-3-(4-(1-benzhydrylazetidin-3-yloxy)-3-fluorophenyl)-1H-pyrazolo[3,4-d]pyrimidin-1-yl)ethyl)-5-fluoro-3-(3-fluorophenyl)-4H-chromen-4-one]: the inhibition at 1 µM against PI3kα and at PI3kβ was 0 to 25% in each case. Moreover, the inhibition at 0.3 µM at PI3kγ and at PI3kδ was 25 to 50% throughout.

With `Cc1cc(-c2nn(C(C)c3oc4cccc(F)c4c(=O)c3-c3cccc(F)c3)c3ncnc(N)c23)ccc1OC(C)C` (centres unmarked) [Example 50, 2-(1-(4-amino-3-(4-isopropoxy-3-methylphenyl)-1H-pyrazolo[3,4-d]pyrimidin-1-yl)ethyl)-5-fluoro-3-(3-fluorophenyl)-4H-chromen-4-one], the “% inhibition (PI3kα) 1 uM” value on PI3kα is listed as “D (D=0 to 25%)”. For the same compound, the “% inhibition (PI3kβ) 1 uM” value on PI3kβ is listed as “C (C=>25 to 50%)”. Moreover, the results for the inhibition at 0.3 µM against PI3kγ and against PI3kδ were 50 to 75% and 75 to 100%, respectively.

As to `CCC(Nc1ncnc2[nH]cnc12)c1oc2cccc(F)c2c(=O)c1-c1ccccc1` (centres unmarked) [Example 65, 2-(1-(9H-purin-6-ylamino)propyl)-5-fluoro-3-phenyl-4H-chromen-4-one], the inhibition at 1 µM on PI3kα and against PI3kβ was 25 to 50% each time. Further, the inhibition at 0.1 µM at PI3kγ was in the range of 50 to 75%; on PI3kδ, 0 to 25%.

Regarding `CC(c1oc2cccc(F)c2c(=O)c1-c1ccc(F)cc1)n1cnc2c(N)nc(F)nc21` (centres unmarked) [Example 107, 2-(1-(6-amino-2-fluoro-9H-purin-9-yl)ethyl)-5-fluoro-3-(4-fluorophenyl)-4H-chromen-4-one], the inhibition at 1 µM was in the range of 0 to 25% at PI3kα and 25 to 50% against PI3kβ. The inhibition at 0.1 µM was 25 to 50% against PI3kγ and 0 to 25% against PI3kδ.

Regarding `CC(c1oc2cccc(F)c2c(=O)c1-c1ccc(F)cc1)n1cnc2c(N3CCOCC3)ncnc21` (centres unmarked) [Example 108, 5-fluoro-3-(4-fluorophenyl)-2-(1-(6-morpholino-9H-purin-9-yl)ethyl)-4H-chromen-4-one], the inhibition at 1 µM against PI3kα lay within 25 to 50%; on PI3kβ it was 0 to 25%. Further, the inhibition at 0.1 µM against PI3kγ and on PI3kδ was 25 to 50% throughout.

Take `CC(c1oc2cccc(F)c2c(=O)c1-c1cccc(F)c1)n1cnc2c(N(C)C)ncnc21` (centres unmarked) [Example 110, 2-(1-(6-(dimethylamino)-9H-purin-9-yl)ethyl)-5-fluoro-3-(3-fluorophenyl)-4H-chromen-4-one]: the inhibition at 1 µM at PI3kα is 0 to 25%. Besides, at PI3kβ, the inhibition at 1 µM was 25 to 50%. At PI3kγ, the IC50 was in the range of 50 to 100 nM and the “% inhibition (PI3kγ) 100 nM” value was “B (B=>50 to 75%)”. In addition, on PI3kδ, the IC50 was no more than 50 nM and the “% inhibition (PI3kδ) 100 nM” value is recorded as “A (A=>75 to 100%)”.

Consider `CC(c1oc2cccc(F)c2c(=O)c1-c1cccc(F)c1)n1nc(-c2ccc(N3CCOCC3)c(Cl)c2)c2c(N)ncnc21` (centres unmarked) [Example 113, 2-(1-(4-amino-3-(3-chloro-4-morpholinophenyl)-1H-pyrazolo[3,4-d]pyrimidin-1-yl)ethyl)-5-fluoro-3-(3-fluorophenyl)-4H-chromen-4-one], for which, at PI3kα, the “% inhibition (PI3kα) 1 uM” value is listed as “C (C=>25 to 50%)”. In addition, the “% inhibition (PI3kβ) 1 uM” value at PI3kβ is “D (D=0 to 25%)”. On PI3kγ, the IC50 lay within 50 to 100 nM and the “% inhibition (PI3kγ) 100 nM” value was “B (B=>50 to 75%)”. On PI3kδ, the IC50 was no more than 50 nM and the inhibition at 0.1 µM fell in the range of 50 to 75%.

In the case of `Cc1nc2ccc(-c3nn(C(C)c4oc5cccc(F)c5c(=O)c4-c4cccc(F)c4)c4ncnc(N)c34)cc2o1` (centres unmarked) [Example 118, 2-(1-(4-amino-3-(2-methylbenzo[d]oxazol-6-yl)-1H-pyrazolo[3,4-d]pyrimidin-1-yl)ethyl)-5-fluoro-3-(3-fluorophenyl)-4H-chromen-4-one], the inhibition at 1 µM lay in the range of 25 to 50% against PI3kα and 0 to 25% at PI3kβ. The inhibition at 0.1 µM on PI3kγ and against PI3kδ was 25 to 50% in each case.

`CC(=O)c1ccc(-c2nn(C(C)c3oc4cccc(F)c4c(=O)c3-c3cccc(F)c3)c3ncnc(N)c23)cc1F` (centres unmarked) [Example 124, 2-(1-(3-(4-acetyl-3-fluorophenyl)-4-amino-1H-pyrazolo[3,4-d]pyrimidin-1-yl)ethyl)-5-fluoro-3-(3-fluorophenyl)-4H-chromen-4-one]: the inhibition at 1 µM at PI3kα lay within 25 to 50%; against PI3kβ it was 0 to 25%. Besides, the inhibition at 0.1 µM was 0 to 25% against PI3kγ and 25 to 50% against PI3kδ.

As for `CC(c1oc2cccc(F)c2c(=O)c1-c1cccc(F)c1)n1nc(-c2cccc(NS(C)(=O)=O)c2)c2c(N)ncnc21` (centres unmarked) [Example 128, N-(3-(4-amino-1-(1-(5-fluoro-3-(3-fluorophenyl)-4-oxo-4H-chromen-2-yl)ethyl)-1H-pyrazolo[3,4-d]pyrimidin-3-yl)phenyl)methanesulfonamide], the inhibition at 1 µM at PI3kα fell in the range of 25 to 50%; against PI3kβ it was 50 to 75%. The IC50 on PI3kγ and at PI3kδ was 50 to 100 nM each time. The inhibition at 0.1 µM against PI3kγ was 25 to 50%; on PI3kδ it was 50 to 75%.

With `Cc1ccccc1-c1c(C(C)Nc2ncnc3[nH]cnc23)oc2cccc(F)c2c1=O` (centres unmarked) [Example 138, 2-(1-(9H-purin-6-ylamino)ethyl)-5-fluoro-3-o-tolyl-4H-chromen-4-one], the melting point lay in the range of 275 to 277 °C.

As a reminder, the melting point is the temperature, or range, at which the solid turns liquid. Broadly, the inhibition is the share of the control response that was lost under treatment. What is called IC50 is the concentration at which inhibition is half-maximal. Low readings indicate higher potency, high ones lower potency.
